Data reported in PMC10313368 (The Journal of Clinical Investigation, 2023).
Where “and” joins values, the source holds several entries; their conditions need not be identical. Identical values can stand only once.

Columns and labels:
MIO-M1 cells = assay: mRNA angiogenesis array (TaqMan Array qPCR) in MIO-M1 cells; format: cell-based, human
Protocol: Angiogenesis array. Total RNA was isolated from MIO-MI cells (8 hours) and HUVECs (16 […]
cDNA was prepared with QuantiTect® Reverse Transcription Kit (Qiagen, Cat# 205311). RT-qPCR assay was performed with pre-configured TaqMan Array 96-Well FAST Plate for human angiogenic gene expression (Applied Biosystems, Inc) following the manufacture’s protocol. Each plate contains pre-defined genes including 18S, GAPDH and HPRT1 endogenous controls.
TaqMan Array plates were prepared by loading on each well 5 μl of cDNA sample (30 ng) with nuclease-free water and 5 μl of TaqMan™ Fast Advanced Master Mix (Applied Biosystem, Cat# […]
4444554). The reaction was performed using the QuantStudio™ 3 Flex Real‐Time PCR System as follows: 2 minutes at 50°C (stage 1); 10 minutes at 95°C (stage 2); 15 seconds at 95°C and 1 minutes at 60°C for 40 cycles (stage 3). The data were analyzed by using HPRT1 as endogenous […]
The clustering heatmaps were produced with “pheatmap” library in R with scale = row and clustering method = complete.
HUVEC cells, Euclidean distance was used to quantify the difference in qPCR screening. The Euclidean distance was calculated using “dist” function from R’s default stat library that measures

HUVECs = assay: qPCR of VEGF, ANGPTL4, ANGPT2, PTPRB, SERPINE1 mRNA in hypoxic HUVECs; format: cell-based, human; settings: for Angptl4 mRNA / Vegfa mRNA: HUVEC 16HRS, Figure 8D; for Angptl4 mRNA / Vegfa mRNA / Angpt2 mRNA / Ptprb mRNA / Serpine1 mRNA: replicates; for Angpt2 mRNA / Ptprb mRNA / Serpine1 mRNA: HUVEC, Figure 8E
Protocol: MIO-M1, HUVECs, and ARPE19 cells were cultured in DMEM with 10% (vol/vol) FBS (Quality Biological) and 1% penicillin/streptomycin (Cellgro). A hypoxic chamber (Coy Laboratory Product Inc.; Two Glove Model) with 5% CO2, 94% N2, and 1% O2 gas concentration at 37°C was used to culture hypoxic cells. The control cells were cultured in an incubator maintained at 37°C, with 21% O2 and 5% CO2. […] Aflibercept was obtained from the Johns Hopkins University Pharmacy. […]
Reverse transcription and quantitative real-time PCR. Total RNA was isolated from cultured cells or retinas with PureLinkTM RNA Mini Kit (Invitrogen #12183025), and cDNA was prepared with MuLV Reverse Transcriptase (Applied Biosystems). Quantitative real-time PCR was performed with Power SYBR Green PCR Master Mix (Applied Biosystems) and MyiQ Real-Time PCR Detection System (Bio-Rad). Normalization was done using cyclophilin A for mouse tissue and human cell lines. Primers are listed in Supplemental Table 2. […]

BL/6 mice = assay: Fundus photos and fluorescein angiography after systemic (i.p.) administration; format: in vivo, mouse; settings: adult mice, 1 month following 5 consecutive i.p. injections of 40 or 80 mg/kg
Protocol: protocol, the sections were rinsed three times with PBS for 2 minutes. Images were captured at high magnification (20X) with Zeiss fluorescent microscope.
Flash scotopic ERGs. All procedures were performed under dim red light. Mice were dark adapted overnight, anesthetized with ketamine (50 mg/kg) and xylazine (5mg/kg) and pupils were dilated with a topical drop of tropicamide (1%). Scotopic ERG responses were measured using the Celeris ERG stimulator (Diagnosys, Lowell, MA) at flash intensities of 0.025, 0.25, 2.5, 7.96, and 79.06 cd/s/m2. ERGs were measured simultaneously from both eyes with a ground electrode placed into the forehead between the eyes and a reference electrode into the hip.
Fluorescein angiography in mice. […]
vascular permeability, experimental animals were treated with 5 consecutive daily IP injections […]
On day 30, mice were anesthetized using intramuscular injection with ketamine (50 mg/kg) and xylazine (5mg/kg). […] Fluorescein leakage manifests as indistinct vascular borders progressing to diffusely hazy fluorescence. Fluorescein leakage was compared between different groups by quantifying the fluorescence intensities collected after 1-, 2-, and 3-minutes following fluorescein injection using the ImageJ software.

[1] = MIO-M1, hypoxia+32-134D, 8 hours, Figure 7G
[2] = HUVECs, hypoxia 16 hours, 32-134D 10 μM

**Q.** For Brc1ccc2c(-c3csc(-c4c[nH]c5c(Br)cccc45)n3)c[nH]c2c1 [32-134D, 4-(6-bromo-1H-indol-3-yl)-2-(7-bromo-1H-indol-3-yl)thiazole], which “reduction in the Euclidean distance between control and hypoxic cell angiogenic gene expression” value (MIO-M1 cells; MIO-M1, from 73 to 31) is on record?
**A.** The value was 58%.

**Q.** What about the “mRNA transcripts of angiogenic genes versus cells cultured in hypoxia (in words)” value (MIO-M1 cells; MIO-M1, hypoxia + 32-134D) of the same molecule?
**A.** Its value is “substantially reduced”.

**Q.** And the “ANG,RNASE4, angiogenesis array expression (control = 1)” value (MIO-M1 cells; [1])?
**A.** Its value is 2.068.

**Q.** And the “ANGPTL1, angiogenesis array expression (control = 1)” value (MIO-M1 cells; [1])?
**A.** The value was 0.8991.

**Q.** And the “ANGPTL4, angiogenesis array expression (control = 1)” value (MIO-M1 cells; [1])?
**A.** The value was 30.9206.

**Q.** And the “CDH5, angiogenesis array expression (control = 1)” value (MIO-M1 cells; [1])?
**A.** Its value is 0.6144.

**Q.** What about the “CEACAM1, angiogenesis array expression (control = 1)” value (MIO-M1 cells; [1]) of the same molecule?
**A.** The value was 1.055.

**Q.** And the “COL15A1, angiogenesis array expression (control = 1)” value (MIO-M1 cells; [1])?
**A.** The value was 1.01.

**Q.** What about the “CSF3, angiogenesis array expression (control = 1)” value (MIO-M1 cells; [1]) of the same molecule?
**A.** Its value is 0.9339.

**Q.** What about the “FIGF, angiogenesis array expression (control = 1)” value (MIO-M1 cells; [1]) of the same molecule?
**A.** The value was 1.127.

**Q.** And the “HGF, angiogenesis array expression (control = 1)” value (MIO-M1 cells; [1])?
**A.** The value was 0.5689.

**Q.** What about the “IL8, angiogenesis array expression (control = 1)” value (MIO-M1 cells; [1]) of the same molecule?
**A.** The value was 1.45.

**Q.** What about the “TIMP2, angiogenesis array expression (control = 1)” value (MIO-M1 cells; [1]) of the same molecule?
**A.** Its value is 0.9298.

**Q.** What about the “TIMP3, angiogenesis array expression (control = 1)” value (MIO-M1 cells; [1]) of the same molecule?
**A.** Its value is 0.7612.

**Q.** What about the “TNMD, angiogenesis array expression (control = 1)” value (MIO-M1 cells; [1]) of the same molecule?
**A.** Its value is 0.5729.

**Q.** And the “TNNI1, angiogenesis array expression (control = 1)” value (MIO-M1 cells; [1])?
**A.** Its value is 0.511.

**Q.** And the “VEGFA, angiogenesis array expression (control = 1)” value (MIO-M1 cells; [1])?
**A.** Its value is 8.239.

**Q.** What about the “Angptl4 mRNA” value (HUVECs; 1% O2+32-134D 1μM) of the same molecule?
**A.** The value was 23.6548 and 19.8329 and 22.215.

**Q.** And the “Vegfa mRNA” value (HUVECs; 1% O2+32-134D 1μM)?
**A.** The value was 3.163 and 3.148 and 2.936.

**Q.** And the “Angptl4 mRNA” value (HUVECs; 1% O2+32-134D 10μM)?
**A.** The value was 13.1074 and 12.3148 and 11.0174.

**Q.** What about the “Vegfa mRNA” value (HUVECs; 1% O2+32-134D 10μM) of the same molecule?
**A.** The value was 2.892 and 2.5719 and 2.682.

**Q.** And the “Angpt2 mRNA” value (HUVECs; 1% O2+32-134D 1μM)?
**A.** The value was 1.029 and 1.541 and 1.067.

**Q.** And the “Ptprb mRNA” value (HUVECs; 1% O2+32-134D 1μM)?
**A.** Its value is 1.641 and 1.627 and 1.638.

**Q.** What about the “Serpine1 mRNA” value (HUVECs; 1% O2+32-134D 1μM) of the same molecule?
**A.** The value was 2.465 and 2.4817 and 2.486.

**Q.** What about the “Angpt2 mRNA” value (HUVECs; 1% O2+32-134D 10μM) of the same molecule?
**A.** The value was 1.092 and 1.046 and 0.8708.

**Q.** What about the “Ptprb mRNA” value (HUVECs; 1% O2+32-134D 10μM) of the same molecule?
**A.** The value was 1.169 and 1.1917 and 1.0627.

**Q.** And the “Serpine1 mRNA” value (HUVECs; 1% O2+32-134D 10μM)?
**A.** Its value is 2.072 and 2.145 and 2.576.

**Q.** And the “hypoxia-increased ANGPT2 mRNA (in words)” value (HUVECs; [2])?
**A.** Its value is “inhibited”.

**Q.** And the “hypoxia-increased PTPRB mRNA (in words)” value (HUVECs; [2])?
**A.** The value was “inhibited”.

**Q.** What about the “fundus and fluorescein angiogram” value (BL/6 mice) of the same molecule?
**A.** The value was “normal-appearing fundus without evidence of retinal vascular injury or leakage”.
